Laboratory results: the supplement of paper PMC10307832

Tests used:
Experiment in all cases: relative viability (nuclei count vs DMSO), 5 days (fraction); higher = more cells survive
[1] = compound: C=CC(=O)Nc1cc(-n2c(=O)ccc3cnc4ccc(-c5ccc(NS(C)(=O)=O)cc5)cc4c32)ccc1C [BMX-IN-1] + N=C(N)NC(=N)NCCc1ccccc1 [Phenformin] (partner 250 µM)
Method in brief: (§1)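 After 5 days of treatment, lung cancer cells in 1536-well plates were fixed and stained in a single step (final 0.05% Triton X-100, 1% formaldehyde, 1 ug/ml Hoechst) and their nuclei counted on 4× images. Treatment had been applied by pin tool the day after seeding as one drug alone or as a fixed anchor-drug dose with five library-drug doses (not always all listed) in √10 steps. Relative viability is the nuclei count of treated wells divided by that of vehicle wells, and values are medians of duplicate plates.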

[2] = compound: C=CCc1cccc(/C=N/NC(=O)CN2CCN(Cc3ccccc3)CC2)c1O [PAC-1] + N=C(N)NC(=N)NCCc1ccccc1 [Phenformin] (partner 250 µM)
Method in brief: as §1

[3] = compound: C=CC(=O)N1CCC[C@@H](n2nc(-c3ccc(Oc4ccccc4)cc3)c3c(N)ncnc32)C1 [Ibrutinib] + CC(=O)c1c(C)c2cnc(Nc3ccc(N4CCNCC4)cn3)nc2n(C2CCCC2)c1=O [Palbociclib] (partner 0.5 µM)
Method in brief: as §1

[4] = compound: C=CC(=O)Nc1cc(-n2c(=O)ccc3cnc4ccc(-c5ccc(NS(C)(=O)=O)cc5)cc4c32)ccc1C [BMX-IN-1] + O=C(c1cc(Cc2n[nH]c(=O)c3ccccc23)ccc1F)N1CCN(C(=O)C2CC2)CC1 [Olaparib] (partner 8 µM)
Method in brief: as §1

| Cell Line | relative viability ([1]; first compound 0.02 µM) | relative viability ([1]; first compound 0.2 µM) | relative viability ([1]; first compound 0.6325 µM) | relative viability ([1]; first compound 2 µM) | relative viability ([2]; first compound 0.02 µM) | relative viability ([2]; first compound 0.06325 µM) | relative viability ([2]; first compound 0.2 µM) | relative viability ([2]; first compound 2 µM) | relative viability ([3]; first compound 0.005 µM) | relative viability ([3]; first compound 0.01581 µM) | relative viability ([3]; first compound 0.05 µM) | relative viability ([3]; first compound 0.1581 µM) | relative viability ([3]; first compound 0.5 µM) | relative viability ([4]; first compound 0.02 µM) | relative viability ([4]; first compound 0.2 µM) | relative viability ([4]; first compound 0.6325 µM) | relative viability ([4]; first compound 2 µM) |
| --- | --- | --- | --- | --- | --- | --- | --- | --- | --- | --- | --- | --- | --- | --- | --- | --- | --- |
| NCI-H1755 | 0.544 | 0.673 | 0.711 | 0.612 | 0.615 | 0.614 | 0.595 | 0.606 | 0.473 | 0.442 | 0.467 | 0.455 | 0.495 | 0.903 | 0.941 | 1.01 | 0.873 |
| EPLC-272H | 0.263 | 0.339 | 0.345 | 0.281 | 0.298 | 0.339 | 0.241 | 0.288 | – | 0.282 | 0.312 | 0.316 | 0.272 | 0.823 | 0.834 | 0.509 | 0.677 |
| NCI-H1793 | 0.272 | 0.398 | 0.467 | 0.433 | 0.327 | 0.376 | 0.355 | 0.353 | 0.251 | 0.247 | 0.238 | 0.31 | 0.243 | 1.1 | 1.01 | 1.05 | 0.92 |
| NCI-H358 | 0.355 | 0.342 | 0.384 | 0.324 | 0.305 | 0.314 | 0.269 | 0.374 | 0.121 | 0.169 | – | 0.189 | 0.11 | 0.634 | 0.743 | 0.71 | 0.548 |
| HCC-827 | 0.342 | 0.42 | 0.4 | 0.421 | 0.383 | 0.402 | 0.368 | 0.4 | 0.471 | 0.438 | 0.453 | 0.475 | 0.17 | 0.597 | 0.635 | 0.652 | 0.629 |
| NCI-H2085 | 0.664 | 0.68 | 0.81 | 0.707 | 0.747 | 0.757 | 0.723 | 0.815 | 0.467 | 0.469 | 0.425 | 0.47 | 0.44 | 0.807 | 0.704 | 0.782 | 0.746 |
| LCLC-97TM1 | 0.383 | 0.455 | 0.503 | 0.471 | 0.507 | 0.456 | 0.424 | 0.427 | 0.222 | 0.226 | 0.284 | 0.241 | 0.161 | 0.383 | 0.597 | 0.413 | 0.367 |
| EKVX | 0.21 | 0.245 | 0.247 | 0.211 | 0.232 | 0.244 | 0.226 | 0.195 | 0.304 | 0.314 | 0.259 | 0.269 | 0.155 | 0.99 | 0.993 | 0.971 | 0.828 |
| PC-14 | 0.575 | 0.535 | 0.809 | 0.583 | 0.59 | 0.683 | 0.727 | 0.633 | 0.527 | 0.495 | 0.576 | 0.575 | 0.172 | 0.265 | 0.265 | 0.297 | 0.266 |
| NCI-H1355 | 0.397 | 0.477 | 0.453 | 0.481 | 0.461 | 0.517 | 0.431 | 0.438 | – | 0.362 | 0.359 | 0.422 | 0.295 | 0.805 | 0.813 | 0.713 | 0.749 |
| NCI-H1792 | 0.235 | 0.354 | 0.292 | 0.312 | 0.298 | 0.257 | 0.293 | 0.24 | – | 0.593 | 0.757 | – | 0.683 | 0.492 | 0.436 | 0.491 | 0.322 |
| NCI-H2009 | 0.47 | 0.549 | 0.531 | 0.485 | 0.473 | 0.481 | 0.451 | 0.484 | 0.136 | 0.214 | 0.183 | 0.169 | 0.288 | 0.838 | 0.646 | 0.654 | 0.66 |
| HARA | 0.413 | 0.619 | 0.489 | 0.409 | 0.438 | 0.476 | 0.446 | 0.507 | 0.284 | 0.217 | 0.241 | 0.254 | 0.223 | 1.01 | 0.859 | 0.936 | 0.734 |
| H3255 | 0.327 | 0.357 | 0.782 | 0.374 | 0.398 | 0.394 | 0.334 | 0.308 | 0.312 | 0.328 | 0.293 | 0.324 | 0.26 | 0.584 | 0.588 | 0.548 | 0.628 |
| SW 1573 | 0.383 | 0.446 | 0.342 | 0.351 | 0.372 | 0.352 | 0.36 | 0.303 | – | 0.345 | 0.419 | 0.393 | 0.477 | 0.592 | 0.49 | 0.433 | 0.343 |
| SW 900 | 0.545 | 0.82 | 0.614 | 0.543 | 0.43 | 0.575 | 0.568 | 0.415 | 0.572 | 0.437 | 0.552 | 0.511 | 0.479 | 1.15 | 0.938 | 0.819 | 0.782 |

| Cell Line | relative viability ([1]; first compound 0.02 µM) | relative viability ([1]; first compound 0.2 µM) | relative viability ([1]; first compound 0.6325 µM) | relative viability ([1]; first compound 2 µM) | relative viability ([2]; first compound 0.02 µM) | relative viability ([2]; first compound 0.06325 µM) | relative viability ([2]; first compound 0.2 µM) | relative viability ([2]; first compound 2 µM) | relative viability ([3]; first compound 0.005 µM) | relative viability ([3]; first compound 0.01581 µM) | relative viability ([3]; first compound 0.05 µM) | relative viability ([3]; first compound 0.1581 µM) | relative viability ([3]; first compound 0.5 µM) | relative viability ([4]; first compound 0.02 µM) | relative viability ([4]; first compound 0.2 µM) | relative viability ([4]; first compound 0.6325 µM) | relative viability ([4]; first compound 2 µM) |
| --- | --- | --- | --- | --- | --- | --- | --- | --- | --- | --- | --- | --- | --- | --- | --- | --- | --- |
| NCI-H1666 | 0.572 | 0.581 | 0.597 | 0.607 | 0.589 | 0.559 | 0.695 | 0.549 | 0.647 | 0.692 | 0.639 | 0.631 | 0.659 | 0.753 | 0.806 | 0.631 | 0.769 |
| NCI-H1993 | 0.438 | 0.525 | 0.453 | 0.492 | 0.42 | 0.513 | 0.595 | 0.498 | 0.388 | 0.56 | 1.64 | 0.714 | 0.466 | 1.21 | 1.15 | 0.913 | 1.06 |
| HCC-366 | 0.503 | 0.625 | 0.639 | 0.603 | 0.612 | 0.634 | 0.595 | 0.655 | 0.439 | 0.405 | 0.38 | 0.385 | 0.428 | 0.416 | 0.406 | 0.442 | 0.361 |
| EMC-BAC-2 | 0.553 | 0.573 | 0.56 | 0.515 | 0.496 | 0.556 | 0.52 | 0.511 | 0.509 | 0.493 | 0.566 | – | 0.497 | 0.514 | 0.49 | 0.512 | 0.494 |
| NCI-H1975 | 0.404 | 0.428 | 0.453 | 0.416 | 0.404 | 0.389 | 0.401 | 0.447 | 0.546 | 0.446 | 0.502 | 0.457 | 0.17 | 0.837 | 1.02 | 0.853 | 0.841 |
| NCI-H1944 | 0.2 | 0.219 | 0.234 | 0.205 | 0.198 | 0.198 | 0.19 | 0.189 | 0.297 | 0.285 | 0.273 | 0.301 | 0.255 | 0.439 | 0.414 | 0.396 | 0.435 |
| NCI-H1395 | 0.445 | 0.456 | 0.444 | 0.47 | 0.45 | 0.429 | 0.421 | 0.426 | 0.55 | 0.672 | 0.648 | 0.623 | 0.612 | 0.433 | 0.45 | 0.452 | 0.45 |
| NCI-H650 | 0.46 | 0.505 | 0.452 | 0.455 | 0.469 | 0.452 | 0.403 | 0.444 | 0.399 | 0.303 | 0.415 | 0.414 | 0.358 | 0.366 | 0.379 | 0.469 | 0.456 |
| NCI-H1437 | 0.281 | 0.342 | 0.334 | 0.326 | 0.302 | 0.275 | 0.264 | 0.339 | 0.336 | 0.307 | 0.307 | 0.235 | 0.374 | 0.662 | 0.647 | 0.692 | 0.664 |
| NCI-H2347 | 0.314 | 0.368 | 0.38 | 0.357 | 0.184 | 0.441 | 0.352 | 0.553 | 0.391 | 0.386 | 0.478 | 0.492 | 0.428 | 0.523 | 0.603 | 0.597 | 0.573 |
| NCI-H520 | 0.711 | 0.81 | 0.709 | 0.693 | 0.418 | 0.685 | 0.462 | 0.6 | 0.183 | 0.217 | 0.206 | 0.237 | 0.161 | 0.323 | 0.368 | 0.301 | 0.273 |
| COR-L23 | 0.499 | 0.553 | 0.46 | 0.48 | 0.458 | 0.434 | 0.423 | 0.429 | 0.285 | 0.304 | 0.282 | 0.353 | 0.332 | 0.286 | 0.373 | 0.439 | 0.327 |
| NCI-H2405 | 0.389 | 0.568 | 0.391 | 0.429 | 0.398 | 0.403 | 0.391 | 0.361 | 0.49 | 0.514 | – | – | 0.525 | 0.958 | 0.958 | 0.977 | 0.865 |
| A-427 | 0.192 | 0.324 | 0.348 | 0.37 | 0.328 | 0.384 | 0.338 | 0.279 | 0.549 | 0.533 | 0.491 | – | 0.496 | 0.709 | 0.766 | 0.979 | 0.783 |
| SK-LU-1 | 0.513 | 0.636 | 0.626 | 0.524 | 0.568 | 0.547 | 0.432 | 0.587 | 0.372 | 0.365 | 0.392 | 0.407 | 0.365 | 0.491 | 0.403 | 0.516 | 0.506 |
